The record followed here is patent US20230114241A1, “METHODS OF TREATING EPILEPSY USING THE SAME” (Trevena, Inc., priority 2019, published 2023).

For one assay, the target named is human sphingosine-1-phosphate receptor 1 (S1P1) (Homo sapiens, UniProt P21453). As to the kind of experiment: Inhibition of cAMP production (HTRF cAMP HiRange), S1P1 CHO-K1 cells. The class given is cell-based. Conditions: inhibition of cAMP production, S1P1; read-out: hS1P1 CAMP pEC50 (converted). Put shortly: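 Intracellular cAMP changes read by TR-FRET (HTRF HiRange, 1 h room temperature) after 30 min compound exposure at 37 °C. Cells: overnight-plated CHO-K1 stably expressing tagged human S1P1 with EA-β-arrestin2. Responses normalized to fingolimod.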
human sphingosine-1-phosphate receptor 1 (S1P1), sequence (P21453 whole entry): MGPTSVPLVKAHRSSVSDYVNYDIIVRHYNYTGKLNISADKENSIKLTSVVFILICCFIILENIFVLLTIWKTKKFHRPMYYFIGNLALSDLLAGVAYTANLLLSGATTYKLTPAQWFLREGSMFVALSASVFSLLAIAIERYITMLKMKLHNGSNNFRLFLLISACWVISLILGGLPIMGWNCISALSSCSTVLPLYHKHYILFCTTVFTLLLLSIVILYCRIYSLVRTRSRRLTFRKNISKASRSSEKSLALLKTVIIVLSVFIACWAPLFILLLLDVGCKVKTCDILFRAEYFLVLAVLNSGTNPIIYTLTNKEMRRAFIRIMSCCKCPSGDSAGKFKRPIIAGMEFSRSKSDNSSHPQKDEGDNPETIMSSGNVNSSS
For orientation: Cyclic AMP is a second messenger, typically raised through Gs and lowered through Gi signalling.
As to `CC(C)n1nnc2cc(-c3nc(-c4ccc5nc[nH]c5c4)no3)ccc21` [Compound 511, 5-[3-(1H-1,3-benzodiazol-6-yl)-1,2,4-oxadiazol-5-yl]-1-(propan-2-yl)-1H-1,2,3-benzotriazole], the EC50 was less than 316 nM.

For `COc1ccc2oc(-c3ccc4c(c3)nnn4CC(C)C)nc2c1` [Compound 451, 2-(1-isobutyl-1H-benzo[d][1,2,3]triazol-5-yl)-5-methoxy-benzo[d]oxazole], the EC50 is less than 316 nM.

For `CC(C)(O)Cn1nnc2cc(-c3nc(-c4cocn4)no3)ccc21` [Compound 570, 2-methyl-1-{5-[3-(1,3-oxazol-4-yl)-1,2,4-oxadiazol-5-yl]-1H-1,2,3-benzotriazol-1-yl}propan-2-ol], the EC50 was greater than 316 nM.

Regarding `N#Cc1cc(-c2nnc(-c3ccc4[nH]cnc4c3)o2)ccc1NC(CF)CF` [Compound 600, 5-[5-(1H-1,3-benzo-diazol-5-yl)-1,3,4-oxadiazol-2-yl]-2-[(1,3-difluoropropan-2-yl)amino]benzonitrile], the EC50 is less than 316 nM.

On to `CC(C)n1nnc2cc(-c3nc(-c4ccccc4N)co3)ccc21` [Compound 438, 2-{2-[1-(propan-2-yl)-1H-1,2,3-benzotriazol-5-yl]-1,3-oxazol-4-yl}aniline], for which the EC50 was less than 316 nM.

Regarding `COc1cc(NC(C)=O)ccc1-c1noc(-c2ccc3c(c2)nnn3C(C)C)n1` [Compound 532, N-(3-methoxy-4-{5-[1-(propan-2-yl)-1H-1,2,3-benzotriazol-5-yl]-1,2,4-oxadiazol-3-yl}phenyl)acetamide], the EC50 is less than 316 nM.

`Cc1ccsc1-c1nc(-c2ccc3c(c2)nnn3C(C)(C)CO)no1` [Compound 611, 2-methyl-2-(5-(5-(3-methylthiophen-2-yl)-1,2,4-oxadiazol-3-yl)-1H-benzo[d] [1,2,3]triazol-1-yl)propan-1-ol]: the EC50 was less than 316 nM.

For `CNc1ccccc1-c1nc(-c2ccc3c(c2)nnn3C(C)C)no1` [Compound 599, N-methyl-2-{3-[1-(propan-2-yl)-1H-l,2,3-benzotriazol-5-yl]-1,2,4-oxadiazol-5-yl}aniline], the EC50 is less than 316 nM.

Consider `COc1ccc2nc(-c3ccc4c(c3)nnn4CC(C)C)oc2c1` [Compound 452, 2-(1-isobutyl-1H-benzo[d][1,2,3]triazol-5-yl)-6-methoxy-benzo[d]oxazole], for which the EC50 is greater than 316 nM.

As to `CC(C)(O)Cn1nnc2cc(-c3nc(-c4ccc5nc[nH]c5c4)no3)ccc21` [Compound 501, 1-{5-[3-(1H-1,3-benzo-diazol-6-yl)-1,2,4-oxadiazol-5-yl]-1H-1,2,3-benzotriazol-1-yl}-2-methylpropan-2-ol], the EC50 is greater than 316 nM.

For the molecule `CCC1(CC)CC(=O)c2cc(-c3nc(-c4ccc(NC(C)=O)cc4OC(F)(F)F)no3)ccc2O1` [Compound 584, N-{4-[5-(2,2-diethyl-4-oxo-3,4-dihydro-2H-1-benzopyran-6-yl)-1,2,4-oxadiazol-3-yl]-3-(trifluoromethoxy)phenyl}acetamide], the EC50 is less than 316 nM.

For the molecule `Cc1ccc2oc(-c3ccc4c(c3)nnn4C(C)C)nc2c1` [Compound 419, 2-(1-isopropyl-1H-benzo[d][1,2,3]triazol-5-yl)-5-methyl-benzo[d]oxazole], the EC50 is less than 316 nM.

In the case of `CC(C)Cn1nnc2cc(-c3nc4c(Br)cccc4o3)ccc21` [Compound 461, 4-bromo-2-(1-isobutyl-1H-benzo[d][1,2,3]triazol-5-yl)benzo[d]oxazole], the EC50 is greater than 316 nM.

The assay is the same for the next values; noted with them: inhibition of cAMP production; potency; read-out: hS1P1 CAMP pEC50 (converted).
As to `CCC1(CC)CC(=O)c2cc(-c3nnc(-c4cccnc4)s3)ccc2O1` [Compound 104, 2,2-diethyl-6-(5-(pyridin-3-yl)-1,3,4-thiadiazol-2-yl)chroman-4-one], the EC50 was less than 316 nM.

For the molecule `Brc1ccccc1-c1noc(-c2ccc3c(c2)nnn3C2CCOCC2)n1` [Compound 233, 5-[3-(2-bromophenyl)-1,2,4-oxadiazol-5-yl]-1-(oxan-4-yl)-1H-1,2,3-benzotriazole], the EC50 is greater than 316 nM.

In the case of `CCC1(CC)CC(=O)c2cc(-c3nc(-c4ccc(NS(C)(=O)=O)cc4)no3)ccc2O1` [Compound 262, N-(4-(5-(2,2-diethyl-4-oxochroman-6-yl)-l,2,4-oxadiazol-3-yl)phenyl)methane-sulfonamide], the EC50 was less than 316 nM.

Take `CC(C)n1nnc2cc(-c3noc(-c4ccc(F)cc4)n3)ccc21` [Compound 255, 5-(4-fluorophenyl)-3-(1-isopropyl-benzotriazol-5-yl)-1,2,4-oxadiazole]: the EC50 was greater than 316 nM.

On to `CCC1(CC)CC(=O)c2cc(-c3nc(-c4ccnc(F)c4)no3)ccc2O1` [Compound 146, 2,2-diethyl-6-(3-(2-fluoropyridin-4-yl)-1,2,4-oxadiazol-5-yl)chroman-4-one], for which the EC50 is less than 316 nM.

For the molecule `CCC1(CC)CC(=O)c2cc(-c3nc(-c4ccc(C(=O)NC)cc4)no3)ccc2O1` [Compound 185, 4-(5-(2,2-diethyl-4-oxochroman-6-yl)-1,2,4-oxadiazol-3-yl)-N-methylbenzamide], the EC50 was less than 316 nM.

Regarding `CC(C)n1ccc2cc(-c3nc(-c4ccccc4Cl)no3)ccc21` [Compound 320, 3-(2-chlorophenyl)-5-(1-isopropyl-1H-indol-5-yl)-1,2,4-oxadiazole], the EC50 was less than 316 nM.

On to `Clc1ncccc1-c1noc(-c2ccc3c(c2)nnn3C2CCCC2)n1` [Compound 198, 5-[3-(2-chloro-pyridin-3-yl)-1,2,4-oxadiazol-5-yl]-1-cyclopenty1-1H-1,2,3-benzotriazole], for which the EC50 is less than 316 nM.

Turning to `CC(C)Oc1ccc(-c2nc(-c3ccc4c(c3)nnn4C3CCCC3)no2)cc1` [Compound 121, 3-(1-cyclopentyl-1H-benzo[d][1,2,3]triazol-5-yl)-5-(4-isopropoxyphenyl)-1,2,4-oxadiazole], the EC50 was greater than 316 nM.

Take `C=CCNc1ccc(-c2nc(-c3ccc4[nH]cnc4c3)no2)cc1C#N` [Compound 177, 5-(3-(1H-benzo[d]imidazol-5-yl)-1,2,4-oxadiazol-5-yl)-2-(allylamino)benzonitrile]: the EC50 was less than 316 nM.

In the case of `CCCn1nnc2cc(-c3nc(-c4ccncc4)no3)ccc21` [Compound 205, 1-propyl-5-[3-(pyridin-4-yl)-1,2,4-oxadiazol-5-yl]-1H-1,2,3-benzotriazole], the EC50 was greater than 316 nM.

Consider `c1ccc(Oc2ccc(-c3noc(-c4ccc5c(c4)nnn5C4CC4)n3)cc2)cc1` [Compound 285, 1-cyclopropyl-5-[3-(4-phenoxyphenyl)-1,2,4-oxadiazol-5-yl]-1H-1,2,3-benzotriazole], for which the EC50 is greater than 316 nM.

On to `CC(C)n1nnc2cc(-c3nc(-c4ccc5ccccc5n4)no3)ccc21` [Compound 168, 2-{5-[1-(propan-2-yl)-1H-1,2,3-benzotriazol-5-yl]-1,2,4-oxadiazol-3-yl}quinoline], for which the EC50 is greater than 316 nM.

In the case of `Brc1ccccc1-c1noc(-c2ccc3c(c2)nnn3C2CC2)n1` [Compound 83, 5-[3-(2-bromophenyl)-1,2,4-oxadiazol-5-yl]-1-cyclopropyl-1H-1,2,3-benzotriazole], the EC50 is less than 316 nM.

As to `CC1(C)CC(=O)c2cc(-c3nc(-c4ccncc4)no3)ccc2O1` [Compound 291, 2,2-dimethyl-6-[3-(pyridin-4-yl)-1,2,4-oxadiazol-5-yl]-3,4-dihydro-2H-1-benzopy ran-4-one], the EC50 is greater than 316 nM.

As for `CCC1(CC)CC(=O)c2cc(-c3nc(-c4ccccc4C)no3)ccc2O1` [Compound 66, 2,2-diethyl-6-(3-(o-tolyl)-1,2,4-oxadiazol-5-yl)chroman-4-one], the EC50 is less than 316 nM.

Consider `CCC1(CC)CC(=O)c2cc(-c3nc(-c4cnccc4OC)no3)ccc2O1` [Compound 303, 2,2-diethyl-6-(3-(4-methoxypyridin-3-yl)-1,2,4-oxadiazol-5-yl)chroman-4-one], for which the EC50 is greater than 316 nM.

As to `CC(C)n1nnc2cc(-c3nc(-c4ccccc4)co3)ccc21` [Compound 294, 5-(4-phenyl-1,3-oxazol-2-yl)-1-(propan-2-yl)-1H-1,2,3-benzotriazole], the EC50 is greater than 316 nM.

Regarding `Cc1ccncc1-c1noc(-c2ccc3c(c2)nnn3CC(C)(C)O)n1` [Compound 206, 2-methyl-1-{5-[3-(4-methylpyridin-3-yl)-1,2,4-oxadiazol-5-yl]-1H-1,2,3-benzotriazol-1-yl}propan-2-ol], the EC50 was greater than 316 nM.

`CCC1(CC)CC(=O)c2cc(-c3nnc(-c4ccc5c(c4)nnn5C(C)C)s3)ccc2O1` [Compound 67, 2,2-diethyl-6-(5-(1-isopropyl-1H-benzo[d][1,2,3]triazol-5-yl)-1,3,4-thiadiazol-2-yl)chroman-4-one]: the EC50 is greater than 316 nM.

As for `CC(C)n1nnc2cc(-c3noc(C4CCOCC4)n3)ccc21` [Compound 89, 5-[5-(oxan-4-yl)-1,2,4-oxadiazol-3-yl]-1-(propan-2-yl)-1H-1,2,3-benzotriazole], the EC50 was greater than 316 nM.

For `Cc1cnc(-c2noc(-c3ccc4c(c3)nnn4C3CCOCC3)n2)cn1` [Compound 6, 5-[3-(5-methylpyrazin-2-yl)-1,2,4-oxadiazol-5-yl]-1-(oxan-4-yl)-1H-1,2,3-benzotriazole], the EC50 was greater than 316 nM.

As to `CCC1(CC)CC(=O)c2cc(-c3nnc(-c4ccc5c(c4)nnn5C(C)C)o3)ccc2O1` [Compound 223, 2,2-diethyl-6-(5-(1-isopropyl-1H-benzo[d][1,2,3]triazol-5-yl)-1,3,4-oxadiazol-2-yl)chroman-4-one], the EC50 is greater than 316 nM.

For the molecule `COc1cccc(OC)c1-c1noc(-c2ccc3c(cnn3C(C)C)c2)n1` [Compound 335, 3-(2,6-dimethoxy-phenyl)-5-(1-isopropylindazol-5-yl)-1,2,4-oxadiazole], the EC50 was greater than 316 nM.

For `CC(C)Nc1ccc(-c2nc(-c3ccc4c(c3)CCC(=O)N4)no2)cc1C#N` [Compound 259, 2-(isopropylamino)-5-(3-(2-oxo-1,2,3,4-tetrahydroquinolin-6-yl)-1,2,4-oxadiazol-5-yl)benzonitrile], the EC50 is less than 316 nM.
